Measured values published in patent US20150065709A1, “Aminoquinazoline Derivative And Use Thereof In Preparing Anti-Malignant Tumor Medicament” (METABOMICS, INC, priority 2012, published 2015).

Key:
Assay in all cases: Inhibition of tumor cells, WST method
Format in all cases: cell-based
[1] = system: CW-2; settings: Homo sapiens, Colon
Procedure: (§1) (1) Compounds: in vitro studies the test compounds was dissolved in 100% DMSO and diluted until the final concentration of DMSO was 0.1%. The 0.1% (v/v) DMSO was added into culture medium as solvent control. 9 concentration gradients were tested and each gradient was repeated twice. (2) Tumor cell lines: the tumor cell lines were cultivated in RPMI10 culture medium containing 10% fetal calf serum in incubator at 37° C. in a 5% CO2 air incubator. The tested tumor cell lines were: BT474, MDA-MB-231, SK-Br-3, A431, H292, H1975, HCC827, A549, H1650 and H1734. (3) MTS method: cells were seeded into 96-well plate to give a density of about 3000 cells per well, and incubated overnight in a humidified incubator at 37° C. In the next day, the test compounds were added to the wells and further incubated for 72 hours. The cell activity was detected using MTS. IC50 was calculated (the concentration of a compound that is required for 50% inhibition of the cell growth versus the DMSO control group, using nonlinear regression analysis of software GraphPad Prism). […] In a 96-well plate, each test compound was tested at 9 dosage concentrations and each dosage was made in triplicate. Samples were added in 100 μL/well. Cell control and negative control wells contained diluents instead of compounds. Except the negative control well, 100 μL cell suspension of complete medium was added into each test well, wherein corresponding cell numbers were included to assure that the cells in cell control well just cover the bottom of the well as the required incubation time was reached. The plate was incubated in a CO2 incubator at 37° C. for 48 hours. The liquid in test wells was removed by pipetting. 100 μL CCK-8 (Cell counting Kit-8, purchased from DOJINDO Molecular Technologies) detection liquid (containing 10% CCK-8, 5% FBS corresponding medium) was added into each test well, then the plate was incubated in a CO2 incubator under at 37° C. for 3 hours. OD value was detected by ELIASA at A450 nm. Cell viability percentage (%)=(O.D. test compound-O.D. blank)/(O.D. control-O.D. blank)×100. Mean value was calculated for each 3 repeated wells, and IC50 was calculated using nonlinear regression (fitted curve) data analysis method.
(§2) Parts of test results of compound Ie listed in the table 3 and all of the test results listed in the table 4 were obtained by WST method.

[2] = system: BT474; settings: Homo sapiens, BT-474, 48 hours
Procedure: as §1, §2

[3] = system: NCI-H2126; settings: Homo sapiens, Lung
Procedure: as §1, §2

[4] = system: H292; settings: Homo sapiens, NCI-H292, 48 hours
Procedure: as §1, §2

[5] = system: CAL27; settings: Homo sapiens, CAL-27, Head and Neck
Procedure: as §1, §2

[6] = system: MDA-MB-468; settings: Homo sapiens, Breast
Procedure: as §1, §2

## CN(C)C/C=C/C(=O)Nc1cc2c(Nc3ccc(F)c(Cl)c3)ncnc2cc1OC(F)F [Compound Ie]
[1]
  IC50: 0.036 µM
[2]
  IC50: 0.088 µM
[3]
  IC50: 1.69 µM
[4]
  IC50: 0.181 µM
[5]
  IC50: 0.002 µM
[6]
  IC50: 0.076 µM
